Reference: the supplement of paper PMC10307832

How the values were obtained:
Assay in all cases: relative viability (nuclei count vs DMSO), 5 days (fraction); higher = more cells survive
[1] = compound: COc1cc2ncn(-c3cc(OCc4ccccc4C(F)(F)F)c(C(N)=O)s3)c2cc1OC + NC(=O)Nc1cc(-c2cccc(F)c2)sc1C(=O)N[C@H]1CCCNC1 [AZD7762] (partner 0.2 µM)
How it was run: (§1)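 Relative viability divides the nuclei count in treated wells by that in vehicle wells. Lung cancer cell lines were seeded in 1536-well plates, dosed by pin tool the next day, and fixed and stained after 5 days in one step with final 0.05% Triton X-100, 1% formaldehyde and 1 ug/ml Hoechst. Dosing was a single drug or a fixed anchor-drug dose plus five library-drug doses (not always all listed) in √10 steps, and values are medians of duplicate plates imaged at 4×.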

[2] = compound: COc1cc2ncn(-c3cc(OCc4ccccc4C(F)(F)F)c(C(N)=O)s3)c2cc1OC + COc1cccc2cc(-c3nc([C@H]4CC[C@H](C(=O)O)CC4)n4ncnc(N)c34)[nH]c12 [OSI-027] (partner 0.5 µM)
How it was run: as §1

[3] = compound: COc1cc2ncn(-c3cc(OCc4ccccc4C(F)(F)F)c(C(N)=O)s3)c2cc1OC + COc1cc2c(Oc3ccc(NC(=O)C4(C(=O)Nc5ccc(F)cc5)CC4)cc3F)ccnc2cc1OCCCN1CCOCC1 [Foretinib] (partner 0.25 µM)
How it was run: as §1

[4] = compound: COc1cc2ncn(-c3cc(OCc4ccccc4C(F)(F)F)c(C(N)=O)s3)c2cc1OC + Nc1nc2[nH]cc(CCc3ccc(C(=O)N[C@@H](CCC(=O)O)C(=O)O)cc3)c2c(=O)[nH]1 [Pemetrexed] (partner 0.2 µM)
How it was run: as §1

Cell Line: NCI-H727
- relative viability ([1]; first compound 0.05 µM): 0.712
- relative viability ([1]; first compound 0.1581 µM): 0.495
- relative viability ([1]; first compound 0.5 µM): 0.504
- relative viability ([1]; first compound 1.581 µM): 0.527
- relative viability ([1]; first compound 5 µM): 0.487
- relative viability ([2]; first compound 0.05 µM): 0.684
- relative viability ([2]; first compound 0.1581 µM): 0.692
- relative viability ([2]; first compound 0.5 µM): 0.457
- relative viability ([2]; first compound 1.581 µM): 0.516
- relative viability ([2]; first compound 5 µM): 0.407
- relative viability ([3]; first compound 0.05 µM): 0.929
- relative viability ([3]; first compound 0.1581 µM): 0.941
- relative viability ([3]; first compound 0.5 µM): 0.639
- relative viability ([3]; first compound 1.581 µM): 0.309
- relative viability ([3]; first compound 5 µM): 0.476

Cell Line: NCI-H1650
- relative viability ([4]; first compound 0.05 µM): 0.421
- relative viability ([4]; first compound 0.1581 µM): 0.36
- relative viability ([4]; first compound 0.5 µM): 0.333
- relative viability ([4]; first compound 1.581 µM): 0.217
- relative viability ([4]; first compound 5 µM): 0.207
- relative viability ([2]; first compound 0.05 µM): 0.503
- relative viability ([2]; first compound 0.1581 µM): 0.654
- relative viability ([2]; first compound 0.5 µM): 0.208
- relative viability ([2]; first compound 1.581 µM): 0.134
- relative viability ([2]; first compound 5 µM): 0.149
- relative viability ([3]; first compound 0.05 µM): 1.04
- relative viability ([3]; first compound 0.1581 µM): 1.01
- relative viability ([3]; first compound 0.5 µM): 1.08
- relative viability ([3]; first compound 1.581 µM): 0.13
- relative viability ([3]; first compound 5 µM): 0.139

Cell Line: EBC-1
- relative viability ([3]; first compound 0.05 µM): 0.0982
- relative viability ([3]; first compound 0.1581 µM): 0.102
- relative viability ([3]; first compound 0.5 µM): 0.0761
- relative viability ([3]; first compound 1.581 µM): 0.0874
- relative viability ([3]; first compound 5 µM): 0.0751

Cell Line: SW 1573
- relative viability ([4]; first compound 0.05 µM): 0.839
- relative viability ([4]; first compound 0.1581 µM): 0.742
- relative viability ([4]; first compound 0.5 µM): 0.594
- relative viability ([4]; first compound 1.581 µM): 0.149
- relative viability ([4]; first compound 5 µM): 0.136
- relative viability ([2]; first compound 0.05 µM): 0.757
- relative viability ([2]; first compound 0.1581 µM): 0.606
- relative viability ([2]; first compound 0.5 µM): 0.281
- relative viability ([2]; first compound 1.581 µM): 0.129
- relative viability ([2]; first compound 5 µM): 0.105
- relative viability ([3]; first compound 0.05 µM): 0.927
- relative viability ([3]; first compound 0.1581 µM): 0.94
- relative viability ([3]; first compound 0.5 µM): 0.825
- relative viability ([3]; first compound 1.581 µM): 0.157
- relative viability ([3]; first compound 5 µM): 0.567

Cell Line: NCI-H661
- relative viability ([4]; first compound 0.05 µM): 0.989
- relative viability ([4]; first compound 0.1581 µM): 0.819
- relative viability ([4]; first compound 0.5 µM): 0.482
- relative viability ([4]; first compound 1.581 µM): 0.303
- relative viability ([4]; first compound 5 µM): 0.269
- relative viability ([2]; first compound 0.05 µM): 0.755
- relative viability ([2]; first compound 0.1581 µM): 0.581
- relative viability ([2]; first compound 0.5 µM): 0.53
- relative viability ([2]; first compound 1.581 µM): 0.191
- relative viability ([2]; first compound 5 µM): 0.174
- relative viability ([3]; first compound 0.05 µM): 0.908
- relative viability ([3]; first compound 0.1581 µM): 0.866
- relative viability ([3]; first compound 0.5 µM): 0.854
- relative viability ([3]; first compound 1.581 µM): 0.322
- relative viability ([3]; first compound 5 µM): 0.27

Cell Line: SK-MES-1
- relative viability ([4]; first compound 0.05 µM): 0.903
- relative viability ([4]; first compound 0.1581 µM): 0.829
- relative viability ([4]; first compound 0.5 µM): 0.419
- relative viability ([4]; first compound 1.581 µM): 0.195
- relative viability ([4]; first compound 5 µM): 0.167
- relative viability ([2]; first compound 0.05 µM): 0.554
- relative viability ([2]; first compound 0.1581 µM): 0.602
- relative viability ([2]; first compound 0.5 µM): 0.219
- relative viability ([2]; first compound 1.581 µM): 0.129
- relative viability ([2]; first compound 5 µM): 0.143
- relative viability ([3]; first compound 0.05 µM): 0.892
- relative viability ([3]; first compound 0.1581 µM): 0.877
- relative viability ([3]; first compound 0.5 µM): 0.518
- relative viability ([3]; first compound 5 µM): 0.667

Cell Line: NCI-H1792
- relative viability ([1]; first compound 0.05 µM): 0.61
- relative viability ([1]; first compound 0.1581 µM): 0.71
- relative viability ([1]; first compound 0.5 µM): 0.472
- relative viability ([1]; first compound 1.581 µM): 0.0325
- relative viability ([1]; first compound 5 µM): 0.0304
- relative viability ([4]; first compound 0.05 µM): 0.683
- relative viability ([4]; first compound 0.1581 µM): 0.688
- relative viability ([4]; first compound 0.5 µM): 0.0781
- relative viability ([4]; first compound 1.581 µM): 0.0502
- relative viability ([4]; first compound 5 µM): 0.0387
- relative viability ([2]; first compound 0.05 µM): 0.815
- relative viability ([2]; first compound 0.1581 µM): 0.661
- relative viability ([2]; first compound 0.5 µM): 0.315
- relative viability ([2]; first compound 1.581 µM): 0.269
- relative viability ([2]; first compound 5 µM): 0.251

Cell Line: UMC-11
- relative viability ([4]; first compound 0.05 µM): 0.619
- relative viability ([4]; first compound 0.1581 µM): 0.599
- relative viability ([4]; first compound 0.5 µM): 0.201
- relative viability ([4]; first compound 1.581 µM): 0.191
- relative viability ([4]; first compound 5 µM): 0.201
- relative viability ([2]; first compound 0.05 µM): 0.469
- relative viability ([2]; first compound 0.1581 µM): 0.34
- relative viability ([2]; first compound 0.5 µM): 0.147
- relative viability ([2]; first compound 1.581 µM): 0.169
- relative viability ([2]; first compound 5 µM): 0.14
- relative viability ([3]; first compound 0.05 µM): 0.893
- relative viability ([3]; first compound 0.1581 µM): 0.836
- relative viability ([3]; first compound 0.5 µM): 0.156
- relative viability ([3]; first compound 1.581 µM): 0.18
- relative viability ([3]; first compound 5 µM): 0.145

Cell Line: A549
- relative viability ([3]; first compound 0.05 µM): 0.979
- relative viability ([3]; first compound 0.1581 µM): 1.03
- relative viability ([3]; first compound 0.5 µM): 0.423
- relative viability ([3]; first compound 1.581 µM): 0.0316
- relative viability ([3]; first compound 5 µM): 0.0318

Cell Line: NCI-H1703
- relative viability ([1]; first compound 0.05 µM): 0.141
- relative viability ([1]; first compound 0.1581 µM): 0.131
- relative viability ([1]; first compound 0.5 µM): 0.104
- relative viability ([1]; first compound 1.581 µM): 0.119
- relative viability ([1]; first compound 5 µM): 0.104
- relative viability ([3]; first compound 0.05 µM): 0.308
- relative viability ([3]; first compound 0.5 µM): 0.303
- relative viability ([3]; first compound 5 µM): 0.15

Cell Line: NCI-H520
- relative viability ([4]; first compound 0.05 µM): 0.301
- relative viability ([4]; first compound 0.1581 µM): 0.663
- relative viability ([4]; first compound 0.5 µM): 0.247
- relative viability ([4]; first compound 1.581 µM): 0.204
- relative viability ([4]; first compound 5 µM): 0.171
- relative viability ([2]; first compound 0.05 µM): 0.28
- relative viability ([2]; first compound 0.1581 µM): 0.29
- relative viability ([2]; first compound 0.5 µM): 0.27
- relative viability ([2]; first compound 1.581 µM): 0.163
- relative viability ([2]; first compound 5 µM): 0.175
- relative viability ([3]; first compound 0.05 µM): 0.892
- relative viability ([3]; first compound 0.1581 µM): 0.836
- relative viability ([3]; first compound 0.5 µM): 0.357
- relative viability ([3]; first compound 1.581 µM): 0.249
- relative viability ([3]; first compound 5 µM): 0.204

Cell Line: NCI-H1563
- relative viability ([4]; first compound 0.05 µM): 0.833
- relative viability ([4]; first compound 0.1581 µM): 0.654
- relative viability ([4]; first compound 0.5 µM): 0.707
- relative viability ([4]; first compound 1.581 µM): 0.71
- relative viability ([4]; first compound 5 µM): 0.365
- relative viability ([2]; first compound 0.05 µM): 0.853
- relative viability ([2]; first compound 0.1581 µM): 0.687
- relative viability ([2]; first compound 0.5 µM): 0.798
- relative viability ([2]; first compound 1.581 µM): 0.57
- relative viability ([2]; first compound 5 µM): 0.488
- relative viability ([3]; first compound 0.05 µM): 0.839
- relative viability ([3]; first compound 0.1581 µM): 0.897
- relative viability ([3]; first compound 0.5 µM): 1.28
- relative viability ([3]; first compound 1.581 µM): 0.767
- relative viability ([3]; first compound 5 µM): 0.567

Cell Line: NCI-H2009
- relative viability ([4]; first compound 0.05 µM): 0.983
- relative viability ([4]; first compound 0.1581 µM): 0.884
- relative viability ([4]; first compound 0.5 µM): 0.43
- relative viability ([4]; first compound 1.581 µM): 0.218
- relative viability ([4]; first compound 5 µM): 0.26
- relative viability ([2]; first compound 0.05 µM): 0.487
- relative viability ([2]; first compound 0.1581 µM): 0.56
- relative viability ([2]; first compound 0.5 µM): 0.209
- relative viability ([2]; first compound 1.581 µM): 0.176
- relative viability ([2]; first compound 5 µM): 0.135
- relative viability ([3]; first compound 0.05 µM): 1.07
- relative viability ([3]; first compound 0.1581 µM): 1.1
- relative viability ([3]; first compound 0.5 µM): 0.89
- relative viability ([3]; first compound 1.581 µM): 0.354
- relative viability ([3]; first compound 5 µM): 0.248
